Experiments:
Experiment in all cases: relative viability vs DMSO control (72 h) (fraction); higher = more viable cells
[1] = test system: SW684
Outline: (§1)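 Sarcoma cell lines were seeded in 384-well plates at densities chosen for 80–90% confluence, then 24 h later given 2.5 µl of serially diluted compound drawn from source plates spanning 10 mM to 0.0002 mM. They were held 72 h at 37 °C, 5% CO2, with 0.1% DMSO vehicle and a 5 µM positive control included. Relative viability was read with ATPLite as percent growth and averaged over up to triplicate wells. Rescaling placed full at 1 and none at 0.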

[2] = test system: A204
Outline: as §1

[3] = test system: SK-ES-1
Outline: as §1

[4] = test system: G401
Outline: as §1

[5] = test system: SK-LMS-1
Outline: as §1

[6] = test system: HS729
Outline: as §1

[7] = test system: SW872
Outline: as §1

[8] = test system: MES-SA
Outline: as §1

[9] = test system: SYO-1
Outline: as §1

[10] = test system: SW1353
Outline: as §1

[11] = test system: SW982
Outline: as §1

[12] = test system: KHOS-240S
Outline: as §1

N#CC1(c2ccc(NC(=O)c3cccnc3NCc3ccncc3)cc2)CCCC1 [Apatinib]
Conditions	relative viability
[1], 0.00017 µM	1.04
[1], 0.00051 µM	1.1
[1], 0.00152 µM	1.06
[1], 0.00457 µM	1.08
[1], 0.01372 µM	1.09
[1], 0.04115 µM	1.09
[1], 0.1235 µM	1.1
[1], 0.3704 µM	1.05
[1], 1.111 µM	1.07
[1], 3.333 µM	1.05
[1], 10 µM	1.02
[2], 0.00017 µM	1.03
[2], 0.00051 µM	1.03
[2], 0.00152 µM	1.05
[2], 0.00457 µM	1.07
[2], 0.01372 µM	1.02
[2], 0.04115 µM	1.01
[2], 0.1235 µM	0.992
[2], 0.3704 µM	0.811
[2], 1.111 µM	0.482
[2], 3.333 µM	0.362
[2], 10 µM	0.342
[3], 0.00017 µM	0.968
[3], 0.00051 µM	0.986
[3], 0.00152 µM	0.95
[3], 0.00457 µM	0.964
[3], 0.01372 µM	1
[3], 0.04115 µM	0.991
[3], 0.1235 µM	0.999
[3], 0.3704 µM	1.01
[3], 1.111 µM	0.978
[3], 3.333 µM	0.936
[3], 10 µM	0.845
[4], 0.00017 µM	1.006
[4], 0.00051 µM	1
[4], 0.00152 µM	0.995
[4], 0.00457 µM	0.979
[4], 0.01372 µM	1.01
[4], 0.04115 µM	0.995
[4], 0.1235 µM	0.955
[4], 0.3704 µM	0.927
[4], 1.111 µM	0.901
[4], 3.333 µM	0.895
[4], 10 µM	0.7567
[5], 0.00017 µM	1.06
[5], 0.00051 µM	1.06
[5], 0.00152 µM	1.07
[5], 0.00457 µM	1.05
[5], 0.01372 µM	1.07
[5], 0.04115 µM	1.08
[5], 0.1235 µM	1.01
[5], 0.3704 µM	1.05
[5], 1.111 µM	1.02
[5], 3.333 µM	1
[5], 10 µM	0.833
[6], 0.00017 µM	1.06
[6], 0.00051 µM	1.0262
[6], 0.00152 µM	1.066
[6], 0.00457 µM	1.04
[6], 0.01372 µM	0.997
[6], 0.04115 µM	1.03
[6], 0.1235 µM	1.04
[6], 0.3704 µM	0.963
[6], 1.111 µM	0.906
[6], 3.333 µM	0.865
[6], 10 µM	0.745
[7], 0.00017 µM	1.06
[7], 0.00051 µM	1.07
[7], 0.00152 µM	1.05
[7], 0.00457 µM	1.05
[7], 0.01372 µM	1.08
[7], 0.04115 µM	1.08
[7], 0.1235 µM	1.05
[7], 0.3704 µM	1.02
[7], 1.111 µM	1.02
[7], 3.333 µM	1.03
[7], 10 µM	0.972
[8], 0.00017 µM	0.978
[8], 0.00051 µM	0.958
[8], 0.00152 µM	0.946
[8], 0.00457 µM	0.9268
[8], 0.01372 µM	0.929
[8], 0.04115 µM	0.939
[8], 0.1235 µM	0.928
[8], 0.3704 µM	0.938
[8], 1.111 µM	0.885
[8], 3.333 µM	0.875
[8], 10 µM	0.773
[9], 0.00017 µM	1.01
[9], 0.00051 µM	1.03
[9], 0.00152 µM	1.01
[9], 0.00457 µM	1.02
[9], 0.01372 µM	1.01
[9], 0.04115 µM	1.02
[9], 0.1235 µM	0.957
[9], 0.3704 µM	0.91
[9], 1.111 µM	0.747
[9], 3.333 µM	0.678
[9], 10 µM	0.552
[10], 0.00017 µM	1.03
[10], 0.00051 µM	1.005
[10], 0.00152 µM	0.988
[10], 0.00457 µM	1.01
[10], 0.01372 µM	0.9811
[10], 0.04115 µM	0.992
[10], 0.1235 µM	0.981
[10], 0.3704 µM	0.948
[10], 1.111 µM	0.935
[10], 3.333 µM	0.994
[10], 10 µM	0.928
[11], 0.00017 µM	0.96
[11], 0.00051 µM	0.978
[11], 0.00152 µM	0.994
[11], 0.00457 µM	0.9695
[11], 0.01372 µM	0.99
[11], 0.04115 µM	1.009
[11], 0.1235 µM	1
[11], 0.3704 µM	0.958
[11], 1.111 µM	0.979
[11], 3.333 µM	0.975
[11], 10 µM	0.999
[12], 0.00017 µM	1.04
[12], 0.00051 µM	1.06
[12], 0.00152 µM	1.05
[12], 0.00457 µM	1.04
[12], 0.01372 µM	1.04
[12], 0.04115 µM	1.05
[12], 0.1235 µM	1.03
[12], 0.3704 µM	0.991
[12], 1.111 µM	0.97
[12], 3.333 µM	0.956
[12], 10 µM	0.873

— the supplement of paper PMC10883282
